Results taken from patent US20220023552A1, “KIT FOR INHALED CHEMOTHERAPY, AND TREATMENT OF LUNG CANCER WITH SAID KIT” (UNIVERSITÉ LIBRE DE BRUXELLES, priority 2018, published 2022).

What was measured:
[1] = geometrical particle size distribution (PSD) by laser diffraction; format: physicochemical; conditions: mean ± SD, n = 3
Procedure: The geometrical PSD of bulk cisplatin, cisplatin microparticles from the size-reduction process, and cisplatin dry powder formulation, was measured as suspended and individualized particles. This was done using a Mastersizer 3000 laser diffractometer (Malvern Instruments Ltd., Worcestershire, UK) connected to a Hydro MV dispenser equipped with a 40 W ultrasonic probe (Malvern Instruments Ltd.). Measurements of bulk cisplatin and aliquots of cisplatin microparticles from the size-reduction process were performed in cisplatin-saturated isopropanol. […] The geometrical PSD of bulk cisplatin, cisplatin microparticles from the size-reduction process, and cisplatin dry powder formulation, was measured as suspended and individualized particles as described in the Example 1 and are presented in table 2.

M109-HiFR-LUC2 cells [2] = assay: tumor growth by in vivo bioluminescence in orthotopic lung cancer mice model; parameters: species or system BALB/c mice; conditions: Example 4; p<0.05 for combination, p>0.05 for cisplatin IV
Procedure: The orthotopic intrapulmonary implantation procedure was performed using an adaption of the protocol described previously (Wauthoz et al., Nanomedicine 2015). Briefly, under anesthesia, 6 to 7-week-old BALB/c mice were grafted with 1.4 million M109-HiFR-LUC2 cells in 20 μL of a 50:50 v/v mix of folate-free RPMI/Matrigel® injected intercostally after incision of the skin and dissection of subcutaneous muscles. The different tissue incisions were stitched with a 3-0 silk (Ethicon®, St-Stevens-Woluwe, Belgium). The mice were closely observed until complete recovery. The therapeutic response of the M109 model to cisplatin was evaluated by in vivo optical imaging (bioluminescence) and survival analysis. Bioluminescence is directly proportional to the number of living M109-HiFR-LUC2 tumor cells. […]
The protocol described in example 3 has been reproduced, except that survival rates were also determined (no euthanasia on day 19 and no ex vivo bioluminescence analysis), the treatment started on day 6 according to the scheme table 3 below and that three groups of 4-15 mice were compared: […]
The protocol described in example 3 has been reproduced, except that survival rates were also determined (no euthanasia on day 19 and no ex vivo bioluminescence analysis), the treatment started on day 3 according to the scheme table 5 below and three groups of 8-16 mice were compared: […]

M109-HiFR-LUC2 cells [3] = assay: ex vivo bioluminescence analysis of tumor localization (resected lungs vs chest cavity); format: in vivo, BALB/c mice; conditions: Example 3 additional experiment, day 19 post engraftment
Procedure: Briefly, under anesthesia, 6 to 7-week-old BALB/c mice were grafted with 1.4 million M109-HiFR-LUC2 cells in 20 μL of a 50:50 v/v mix of folate-free RPMI/Matrigel® injected intercostally after incision of the skin and dissection of subcutaneous muscles. The different tissue incisions were stitched with a 3-0 silk (Ethicon®, St-Stevens-Woluwe, Belgium). The mice were closely observed until complete recovery. The therapeutic response of the M109 model to cisplatin was evaluated by in vivo optical imaging (bioluminescence) and survival analysis. Bioluminescence is directly proportional to the number of living M109-HiFR-LUC2 tumor cells. Bioluminescence was performed up to day 19 post tumor cell engraftment using a Photonlmager RT (Biospace Lab, France) using the conventional supplier's protocol. Mice were weighted three times a week and sacrificed if their weight loss exceeded 20% from the beginning of the experiment or 15% from the last measurement or if they were suffocating. In these cases, the mouse death was notified as occurred the day after.
An additional experiment was performed evaluating cisplatin DPI according to example 1 vs cisplatin IV on the same lung cancer mice model. […]

[4] = Table 1, materials of Example 1
[5] = Table 2, materials of Example 2

Structure (SMILES) | D50 (volume median diameter) [1, 4] [μm] | D[4,3] (volume mean diameter) [1, 4] [μm] | D50 (volume median diameter) [1, 5] [μm] | D[4,3] (volume mean diameter) [1, 5] [μm] | significance of the decrease in tumor growth versus untreated control (1-way ANOVA) (M109-HiFR-LUC2 cells [2]) | tumor growth in the chest, cisplatin IV compared with cisplatin DPI (FIG. 3) (M109-HiFR-LUC2 cells [3]; chest cavity = loco-regional metastases) | tumor growth in the lungs, cisplatin IV compared with cisplatin DPI (FIG. 3) (M109-HiFR-LUC2 cells [3]; resected lungs = primary lung tumors)
N.N.[Cl][Pt][Cl] [Raw cisplatin, cisplatin] | 16.5 ± 3.6 | 18.9 ± 4.3 | 6.3 ± 0.1 | 7.1 ± 0.2 | – | – | –
N.N.[Cl][Pt][Cl] [cisplatin IV, cisplatin] | – | – | – | – | not | decrease of tumor growth in the chest | similar
